US11345698B2, “Substituted imidazo[1,2-a]pyridines, substituted imidazo[1,2-a]pyrazines, related compounds, and their use in the treatment of medical disorders” (Bial—R&D Investments, S.A., priority 2016, dated 2022)
Values after ≈ are worked out from the molar mass of the structure shown.

What was measured:
[1] = target: T1, glucocerebrosidase (Gcase) (Homo sapiens, UniProt P04062); assay: Glucocerebrosidase (Gcase) activation assay, 4-methylumbelliferyl-beta-D-glucopyranoside substrate, with saposin C; assay type: biochemical; settings: 10 nM GCase, 100 nM saposin C, pH 4.7; for activation at 0.1 µM: read-out: Percent Gcase Activation, 0.1 μM Test Compound; for activation at 1 µM: read-out: Percent Gcase Activation, 1 μM Test Compound
T1 sequence (P04062 40-536): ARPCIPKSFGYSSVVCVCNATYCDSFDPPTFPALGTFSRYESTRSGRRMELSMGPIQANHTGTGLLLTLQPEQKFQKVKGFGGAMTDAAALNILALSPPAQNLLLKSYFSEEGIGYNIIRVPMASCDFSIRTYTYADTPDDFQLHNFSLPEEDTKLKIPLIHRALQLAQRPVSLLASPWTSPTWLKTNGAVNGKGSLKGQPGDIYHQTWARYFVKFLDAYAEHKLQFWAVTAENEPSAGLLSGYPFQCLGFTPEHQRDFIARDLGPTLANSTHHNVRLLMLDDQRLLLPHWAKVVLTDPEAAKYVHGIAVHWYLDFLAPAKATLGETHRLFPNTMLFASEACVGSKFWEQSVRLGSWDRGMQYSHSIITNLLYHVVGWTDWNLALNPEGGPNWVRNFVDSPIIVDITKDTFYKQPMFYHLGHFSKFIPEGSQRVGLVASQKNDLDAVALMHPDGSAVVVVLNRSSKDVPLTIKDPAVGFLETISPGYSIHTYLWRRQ
Description: A 484 μL aliquot of a 1.0 mg/mL solution of phosphatidylserine (PS) (Sigma P7769) in chloroform was evaporated under a stream of nitrogen for 1 hour. The lipid film was dissolved over 4 minutes of vigorous vortexing in 40 mL of 176 mM K2HPO4/50 mM citric acid (pH 4.7) containing 7.5 μL of triton X-100, resulting in a mixed micellar preparation with a composition of 0.32 mM triton and 0.37 mol % PS. 4-Methylumbelliferyl-beta-D-glucopyranoside (ACROS-337025000) was dissolved in the micellar solution to a final concentration of 2 mM for use as the reaction substrate.
Test compounds were diluted to the desired concentrations with dimethylsulfoxide (DMSO) from 10 mM stocks, and 0.41 μL of the DMSO compound mixture was added to 100 μL of micellar solution containing 10 nM GCase and 100 nM saposin C (Enzo ALX-201-262-C050). Pre-incubation was allowed to occur for 30 minutes at room temperature, after which the reaction was initiated by combining 25 μL of substrate solution with 25 μL of compound/GCase/saposin mixture. The reaction proceeded for 15 minutes at room temperature and was stopped by adding 150 μL of 1M glycine, pH 12.5. The endpoint of the reaction was monitored by measuring fluorescence intensity (excitation: 365 nm; emission: 440 nm) on a SpectraMax i3 instrument (Molecular Devices). […]

[2] = Compound solubility in water

Compound	activation at 0.1 µM ([1]; 0.1 μM test compound) [%]	activation at 1 µM ([1]; 1 μM test compound) [%]	solubility [2] [µg/mL]	Percent Gcase Activation, 0.1 μM Test Compound ([1]; 0.1 μM test compound)	Percent Gcase Activation, 1 μM Test Compound ([1]; 1 μM test compound)
Cc1nc2c(C(=O)NC3CCCc4ccccc43)cccc2o1 (stereo not drawn) [2-Methyl-N-(1,2,3,4-tetrahydronaphthalen-1-yl)benzo[d]oxazole-4-carboxamide]	< 5	> 20	1.5 (≈ 4.9 µM)	–	–
Cc1cn2ccnc(C(=O)NC3CCCc4ccccc43)c2n1 (stereo not drawn) [2-Methyl-N-(1,2,3,4-tetrahydronaphthalen-1-yl)imidazo[1,2-a]pyrazine-8-carboxamide]	< 5	< 5	7.7 (≈ 25.1 µM)	–	–
CCC(NC(=O)c1cccc2oc(C)nc12)c1ccccc1 (stereo not drawn) [2-Methyl-N-(1-phenylpropyl)benzo[d]oxazole-4-carboxamide]	< 5	5 to 20	13.2 (≈ 44.7 µM)	–	–
CCC(NC(=O)c1nccn2cc(C)nc12)c1ccccc1 (stereo not drawn) [2-Methyl-N-(1-phenylpropyl)imidazo[1,2-a]pyrazine-8-carboxamide]	< 5	< 5	10.9 (≈ 37.1 µM)	–	–
CCCCCO[C@H]1CC[C@H](NC(=O)c2cccc3oc(C)nc23)CC1 [2-Methyl-N-((1R,4R)-4-(pentyloxy)cyclohexyl)benzo[d]oxazole-4-carboxamide]	< 5	< 5	1.6 (≈ 4.65 µM)	–	–
CCCCCO[C@H]1CC[C@H](NC(=O)c2nccn3cc(C)nc23)CC1 [2-Methyl-N—((R 4R)-4-(pentyloxy)cyclohexyl)imidazo[1,2-a]pyrazine-8-carboxamide]	< 5	< 5	8.4 (≈ 24.4 µM)	–	–
Cc1ccc(C(=O)NC2CCCc3ccccc32)c2nccn12 (stereo not drawn) [5-Methyl-N-(1,2,3,4-tetrahydronaphthalen-1-yl)imidazo[1,2-a]pyridine-8-carboxamide]	5 to 20	> 20	0.2 (≈ 0.655 µM)	–	–
CCC(NC(=O)c1ccc(C)n2ccnc12)c1ccccc1 (stereo not drawn) [5-Methyl-N-(1-phenylpropyl)imidazo[1,2-a]pyridine-8-carboxamide]	5 to 20	> 20	6.2 (≈ 21.1 µM)	–	–
CCCCCO[C@H]1CC[C@H](NC(=O)c2ccc(C)n3ccnc23)CC1 [5-Methyl-N-((1S,4S)-4-(pentyloxy)cyclohexyl) imidazo[1,2-a]pyridine-8-carboxamide]	5 to 20	> 20	14.2 (≈ 41.3 µM)	–	–
Cc1ccc(C(=O)N[C@@H](C)C2CC2)c2nccn12 [(S)—N-(1-Cyclopropylethyl)-5-methylimidazo[1,2-a]pyridine-8-carboxamide]	< 5	5 to 20	–	–	–
Cc1ccc(C(=O)NC(C2CC2)C(F)(F)F)c2nccn12 (stereo not drawn) [N-(1-Cyclopropyl-2,2,2-trifluoroethyl)-5-methylimidazo[1,2-a]pyridine-8-carboxamide]	5 to 20	> 20	9.9 (≈ 33.3 µM)	–	–
Cc1nc2c(C(=O)Nc3ccc4c(c3)CCC4)cccc2o1 [N-(2,3-Dihydro-1H-inden-5-yl)-2-methylbenzo[d]oxazole-4-carboxamide]	< 5	5 to 20	0.3 (≈ 1.03 µM)	–	–
Cc1cn2ccnc(C(=O)Nc3ccc4c(c3)CCC4)c2n1 [N-(2,3-Dihydro-1H-inden-5-yl)-2-methylimidazo[1,2-al]pyrazine-8-carboxamide]	< 5	5 to 20	1 (≈ 3.42 µM)	–	–
Cc1ccc(C(=O)Nc2ccc3c(c2)CCC3)c2nccn12 [N-(2,3-Dihydro-1H-inden-5-yl)-5-methylimidazo[1,2-a]pyridine-8-carboxamide]	< 5	> 20	0.4 (≈ 1.37 µM)	–	–
Cc1ccc(C(=O)NC(C)(C)C2CC2)c2nccn12 [N-(2-Cyclopropylpropan-2-yl)-5-methylimidazo[1,2-a]pyridine-8-carboxamide]	< 5	> 20	–	–	–
C#Cc1ccc(NC(=O)c2nccn3cc(C)nc23)cc1 [N-(4-Ethynlphenyl)-2-methylimidazo[1,2-a]pyrazine-8-carboxamide]	< 5	5 to 20	0.8 (≈ 2.9 µM)	–	–
N-(4-Ethynylphenyl)-5-methylimidazo[1,2-a]pyrazine-8-carboxamide	–	–	–	++ (Gcase activation in the range of 5% up to 20%)	+++ (Gcase activation greater than 20%)
